Laboratory results reported in US11524080B2 (priority 2018, dated 2022).
In brackets after ≈: the same amount, converted by molar mass. Read-outs that look alike come from different tables or passages of the source.

How the values were obtained:
F. tularensis SCHU-S4 [1] = assay: microbe, parasite or virus in culture; format: cell-based; conditions: Francisella tularensis, SCHUS4
F. tularensis SCHU-S4 [2] = assay: microbe, parasite or virus in culture; format: cell-based; conditions: Francisella tularensis, SCHUS4; remark: listed apart in the source
[3] = mouse, in vivo
[4] = mouse, in vivo, po
[5] = mouse, in vivo, 50 mg/kg
in vivo = conditions: female, Balb/c, mouse
B. pseudomallei K96243 = assay: microbe, parasite or virus in culture; format: cell-based; conditions: Burkholderia pseudomallei

With C[C@H]1c2cccc(O)c2C(=O)C2=C(O)[C@]3(O)C(=O)C(C(N)=O)=C(O)[C@@H](N(C)C)[C@@H]3[C@@H](O)[C@@H]21 [Free doxycycline, doxycycline hyclate] the MIC (F. tularensis SCHU-S4 [1]) was 0.5 µg/mL (≈ 1.13 µM), the MBC (F. tularensis SCHU-S4 [2]) was greater than 64 µg/mL and the “Effect on body weight” value [3] was “strong indication for doxycycline-based weight loss”. For the same compound, the Necropsy findings ([3]; ip) was “peritoneal adhesions involving spleen, pancreas, intestines and kidney”, the Necropsy findings ([3]; po) was “two mice had slightly rounded edges to the lobes of the liver” and the “Mean weight gain on Day 36” value [4] was 1.7%. The “Mean weight loss of starting weight by Day 8” value (shortened to “Mean weight loss”) [4] was 5.2%.

In the case of C[C@H]1COc2c(N3CCN(C)CC3)c(F)cc3c(=O)c(C(=O)O)cn1c23 [Free levofloxacin, levofloxacin], the AUC ([5]; ip) was 122.1861 µg/mL/h, the Tmax ([5]; ip) was 18 min and the AUC ([5]; po) was 119.6124 µg/mL/h. The Tmax ([5]; po) was 36 min, the “Effect on body weight” value [3] was “minimal” and the “Mean weight gain on Day 36” value [4] was 3.2%. The “Mean weight loss” value [4] was 3.3%, the Cmax (in vivo; ip, 50 mg/kg) was 50200 ng/mL and the Cmax (in vivo; ip, 100 mg/kg) was 2100 ng/mL. The Cmax (in vivo; po, 50 mg/kg) was 46100 ng/mL.

For O=C(O)c1cn(C2CC2)c2cc(N3CCNCC3)c(F)cc2c1=O [Free ciprofloxacin, ciprofloxacin], the MBC (B. pseudomallei K96243) was 16 µg/mL (≈ 48.3 µM), the “Effect on body weight” value [3] was “significantly induced weight loss” and the “Mean weight gain on Day 36” value [4] was 2.4%. For the same compound, the “Mean weight loss” value [4] was 4.4%.
